Data from PubChem BioAssay (NCI).
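Following 48 hours of exposure in 96-well plates, responses at five concentrations were used to interpolate endpoints linearly. TGI: total growth inhibition.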

Key:
Assay in all cases: growth of human tumour cells (NCI), 48 h
SK-MEL-28 melanoma = test system: SK-MEL-28 melanoma
SF-539 CNS = test system: SF-539 CNS
T-47D breast = test system: T-47D breast
OVCAR-5 ovarian = test system: OVCAR-5 ovarian
DU-145 prostate = test system: DU-145 prostate
NCI/ADR-RES ovarian = test system: NCI/ADR-RES ovarian
MALME-3M melanoma = test system: MALME-3M melanoma
UACC-257 melanoma = test system: UACC-257 melanoma
SK-OV-3 ovarian = test system: SK-OV-3 ovarian
SNB-75 CNS = test system: SNB-75 CNS
SR leukemia = test system: SR leukemia
MDA-MB-435 = test system: MDA-MB-435
TK-10 renal = test system: TK-10 renal
CCRF-CEM leukemia = test system: CCRF-CEM leukemia
EKVX NSCLC = test system: EKVX NSCLC
OVCAR-8 ovarian = test system: OVCAR-8 ovarian
COLO 205 colon = test system: COLO 205 colon
UACC-62 melanoma = test system: UACC-62 melanoma
HOP-92 NSCLC = test system: HOP-92 NSCLC
NCI-H522 lung = test system: NCI-H522 lung
SK-MEL-2 melanoma = test system: SK-MEL-2 melanoma
K-562 leukemia = test system: K-562 leukemia
BT-549 breast = test system: BT-549 breast
HL-60(TB) leukemia = test system: HL-60(TB) leukemia
NCI-H460 lung = test system: NCI-H460 lung
IGROV1 ovarian = test system: IGROV1 ovarian
HCT-116 colon = test system: HCT-116 colon
ACHN renal = test system: ACHN renal
HT29 colon = test system: HT29 colon
NCI-H226 lung = test system: NCI-H226 lung
LOX IMVI melanoma = test system: LOX IMVI melanoma
NCI-H23 lung = test system: NCI-H23 lung
HOP-62 NSCLC = test system: HOP-62 NSCLC
KM12 colon = test system: KM12 colon
SN12C renal = test system: SN12C renal
RXF 393 renal = test system: RXF 393 renal
SK-MEL-5 melanoma = test system: SK-MEL-5 melanoma
SW-620 colon = test system: SW-620 colon
U251 CNS = test system: U251 CNS
A549 NSCLC = test system: A549 NSCLC
786-0 renal = test system: 786-0 renal
HS 578T breast = test system: HS 578T breast
SF-268 CNS = test system: SF-268 CNS
M14 melanoma = test system: M14 melanoma
OVCAR-3 ovarian = test system: OVCAR-3 ovarian
CAKI-1 renal = test system: CAKI-1 renal
MCF7 breast = test system: MCF7 breast
MDA-N = test system: MDA-N
HCT-15 colon = test system: HCT-15 colon
OVCAR-4 ovarian = test system: OVCAR-4 ovarian
UO-31 renal = test system: UO-31 renal
A498 renal = test system: A498 renal
MDA-MB-231 breast = test system: MDA-MB-231 breast
MOLT-4 leukemia = test system: MOLT-4 leukemia
HCC-2998 colon = test system: HCC-2998 colon
RPMI-8226 leukemia = test system: RPMI-8226 leukemia
SNB-19 CNS = test system: SNB-19 CNS
SF-295 CNS = test system: SF-295 CNS
PC-3 prostate = test system: PC-3 prostate

In the case of `Brc1sc(Br)c2c1[C@H](Br)C[C@@H]2Br`, the TGI (SK-MEL-28 melanoma) is reported as > 100 µM, the TGI (SF-539 CNS) is reported as 44.5 µM and the TGI (T-47D breast) is reported as > 100 µM. For the same compound, the TGI (OVCAR-5 ovarian) was > 100 µM, the TGI (DU-145 prostate) was 61.2 µM and the TGI (NCI/ADR-RES ovarian) was 63.9 µM. For the same compound, the TGI (MALME-3M melanoma) was 63.2 µM, the TGI (UACC-257 melanoma) was > 100 µM and the TGI (SK-OV-3 ovarian) was > 100 µM. The TGI (SNB-75 CNS) was 85.3 µM, the TGI (SR leukemia) was 97.7 µM and the TGI (MDA-MB-435) was > 100 µM. For the same compound, the TGI (TK-10 renal) was > 100 µM, the TGI (CCRF-CEM leukemia) was > 100 µM and the TGI (EKVX NSCLC) was > 100 µM. The TGI (OVCAR-8 ovarian) was 57.2 µM, the TGI (COLO 205 colon) was > 100 µM and the TGI (UACC-62 melanoma) was 88 µM. It also gave a TGI (HOP-92 NSCLC) of 61.5 µM, a TGI (NCI-H522 lung) of 34.2 µM and a TGI (SK-MEL-2 melanoma) of 56 µM. For the same compound, the TGI (K-562 leukemia) was > 100 µM, the TGI (BT-549 breast) was 79 µM and the TGI (HL-60(TB) leukemia) was 75.2 µM. For the same compound, the TGI (NCI-H460 lung) was > 100 µM, the TGI (IGROV1 ovarian) was > 100 µM and the TGI (HCT-116 colon) was > 100 µM. The TGI (ACHN renal) was 97.9 µM, the TGI (HT29 colon) was > 100 µM and the TGI (NCI-H226 lung) was 59.2 µM. The TGI (LOX IMVI melanoma) was 43.8 µM, the TGI (NCI-H23 lung) was 51.1 µM and the TGI (HOP-62 NSCLC) was > 100 µM. The TGI (KM12 colon) was > 100 µM, the TGI (SN12C renal) was > 100 µM and the TGI (RXF 393 renal) was 10.4 µM. For the same compound, the TGI (SK-MEL-5 melanoma) was > 100 µM, the TGI (SW-620 colon) was > 100 µM and the TGI (U251 CNS) was > 100 µM. The TGI (A549 NSCLC) was > 100 µM, the TGI (786-0 renal) was > 100 µM and the TGI (HS 578T breast) was 77.1 µM. For the same compound, the TGI (SF-268 CNS) was 53.4 µM, the TGI (M14 melanoma) was > 100 µM and the TGI (OVCAR-3 ovarian) was > 100 µM. The TGI (CAKI-1 renal) was > 100 µM, the TGI (MCF7 breast) was 98.5 µM and the TGI (MDA-N) was > 100 µM. For the same compound, the TGI (HCT-15 colon) was > 100 µM, the TGI (OVCAR-4 ovarian) was 44.9 µM and the TGI (UO-31 renal) was 45.8 µM. The TGI (A498 renal) was > 100 µM, the TGI (MDA-MB-231 breast) was > 100 µM and the TGI (MOLT-4 leukemia) was 95.5 µM.

In the case of `CCCCCCCCNC(=O)C1=C(C)NC(C)=C(C(=O)NCCCCCCCC)C1`, the TGI (SF-539 CNS) is reported as > 100 µM, the TGI (T-47D breast) is reported as > 100 µM and the TGI (OVCAR-5 ovarian) is reported as > 100 µM. The TGI (HCC-2998 colon) was > 100 µM, the TGI (DU-145 prostate) was > 100 µM and the TGI (NCI/ADR-RES ovarian) was > 100 µM. For the same compound, the TGI (UACC-257 melanoma) was > 100 µM, the TGI (RPMI-8226 leukemia) was > 100 µM and the TGI (SK-OV-3 ovarian) was > 100 µM. The TGI (SNB-75 CNS) was > 100 µM, the TGI (MDA-MB-435) was > 100 µM and the TGI (TK-10 renal) was > 100 µM. For the same compound, the TGI (CCRF-CEM leukemia) was > 100 µM, the TGI (EKVX NSCLC) was > 100 µM and the TGI (OVCAR-8 ovarian) was > 100 µM. For the same compound, the TGI (COLO 205 colon) was > 100 µM, the TGI (UACC-62 melanoma) was > 100 µM and the TGI (HOP-92 NSCLC) was > 100 µM. The TGI (NCI-H522 lung) was > 100 µM, the TGI (SK-MEL-2 melanoma) was > 100 µM and the TGI (K-562 leukemia) was > 100 µM. For the same compound, the TGI (BT-549 breast) was > 100 µM, the TGI (HL-60(TB) leukemia) was > 100 µM and the TGI (NCI-H460 lung) was > 100 µM. The TGI (SNB-19 CNS) was > 100 µM, the TGI (IGROV1 ovarian) was > 100 µM and the TGI (SF-295 CNS) was > 100 µM. For the same compound, the TGI (HCT-116 colon) was > 100 µM, the TGI (ACHN renal) was > 100 µM and the TGI (HT29 colon) was > 100 µM. The TGI (NCI-H226 lung) was > 100 µM, the TGI (LOX IMVI melanoma) was > 100 µM and the TGI (NCI-H23 lung) was > 100 µM. The TGI (HOP-62 NSCLC) was > 100 µM, the TGI (PC-3 prostate) was > 100 µM and the TGI (KM12 colon) was > 100 µM. For the same compound, the TGI (SN12C renal) was > 100 µM, the TGI (RXF 393 renal) was > 100 µM and the TGI (SK-MEL-5 melanoma) was > 100 µM. The TGI (SW-620 colon) was > 100 µM, the TGI (U251 CNS) was > 100 µM and the TGI (A549 NSCLC) was > 100 µM. The TGI (786-0 renal) was > 100 µM, the TGI (HS 578T breast) was > 100 µM and the TGI (SF-268 CNS) was > 100 µM. For the same compound, the TGI (M14 melanoma) was > 100 µM, the TGI (OVCAR-3 ovarian) was > 100 µM and the TGI (CAKI-1 renal) was > 100 µM. For the same compound, the TGI (MCF7 breast) was > 100 µM, the TGI (MDA-N) was > 100 µM and the TGI (HCT-15 colon) was > 100 µM. For the same compound, the TGI (OVCAR-4 ovarian) was > 100 µM, the TGI (UO-31 renal) was > 100 µM and the TGI (MDA-MB-231 breast) was > 100 µM. The TGI (MOLT-4 leukemia) was > 100 µM.
